The source of these data is patent US11130778B2, “CD73 inhibitors” (ORIC Pharmaceuticals, Inc., priority 2019, dated 2021).

Bounds are passed on as bounds.

For this experiment, the target named is T1, CD73 (Homo sapiens, UniProt P21589).
T1 sequence (P21589 27-549): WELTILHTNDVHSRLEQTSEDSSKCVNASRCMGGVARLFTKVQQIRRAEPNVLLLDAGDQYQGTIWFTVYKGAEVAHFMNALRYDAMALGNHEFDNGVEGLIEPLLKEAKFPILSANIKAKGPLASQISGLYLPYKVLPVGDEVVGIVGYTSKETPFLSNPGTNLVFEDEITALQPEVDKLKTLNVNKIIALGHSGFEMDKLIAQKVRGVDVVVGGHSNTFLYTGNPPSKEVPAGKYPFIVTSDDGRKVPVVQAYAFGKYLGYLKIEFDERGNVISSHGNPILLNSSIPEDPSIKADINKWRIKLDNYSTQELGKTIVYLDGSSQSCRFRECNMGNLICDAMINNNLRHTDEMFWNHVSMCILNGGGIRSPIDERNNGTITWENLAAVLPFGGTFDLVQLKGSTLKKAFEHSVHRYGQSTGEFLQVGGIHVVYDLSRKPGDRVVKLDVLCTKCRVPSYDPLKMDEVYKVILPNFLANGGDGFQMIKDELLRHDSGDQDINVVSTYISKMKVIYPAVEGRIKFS
Kind of experiment: Biochemical assay of CD73 inhibition (Malachite Green). The settings on record: CD73 0.3208 nM, AMP 15 μM, Tris-HCl pH 7.4, Malachite Green absorbance readout; read-out: CD73_Biochem. Here is the method: Example A1: Biochemical Assay
Assay Reaction Conditions
• Assay Volume: 70 μl • Reaction Volume: 50 μl • CD73: 0.3208 nM • AMP:15 μM • Assay Buffer: 2 5 mM Tris-HCL, pH 7.4, 0.01% Brij-35, 0.01% BSA, 5 mM MgCl2 Assay Procedure:
Made dose titration of testing compounds in assay buffer, 10 points 1/2 log titrations in duplicates starting at 100 μM.
Added 25 µl of CD73 to each well for a final concentration of […].
Incubated at RT for 15 min.
Added 25 µl of AMP to each well for a final concentration of 15 μM.
Incubated at RT for 10 min.
Added […] of Malachite Green Reagent A, incubate at RT for 10 min.
Added […] of Malachite Green Reagent B, incubate at RT for 45 min.
Read the Absorbance on Envision plate reader using excitation filter: Cy5 […].
The ability of the compounds disclosed herein to inhibit CD73 activity was quantified and the respective IC50 values were determined. Table 2 provides the biochemical IC50 values of compounds disclosed herein.
Regarding `COC[C@@](CC(=O)NO)(OC[C@H]1O[C@@H](n2ncc3c(NC4CCCC4)nc(Cl)nc32)[C@H](O)[C@@H]1O)P(=O)(O)O` [Example 7, ((S)-2-(((2R,3S,4R,5R)-5-(6-chloro-4-(cyclopentylamino)-1H-pyrazolo[3,4-d]pyrimidin-1-yl)-3,4-dihydroxytetrahydrofuran-2-yl)methoxy)-4-(hydroxyamino)-1-methoxy-4-oxobutan-2-yl)phosphonic acid], the IC50 was at most 0.01 µM.

Regarding `COC[C@](COCC(=O)O)(OC[C@H]1O[C@@H](n2ncc3c(NC4CCCC4)nc(Cl)nc32)[C@H](O)[C@@H]1O)P(=O)(O)O` [Example 10], the IC50 was in the range of 0.01 to 0.1 µM.

Turning to `O=P(O)(O)C(CO)(OC[C@H]1O[C@@H](n2ncc3c(NC4CCCC4)nc(Cl)nc32)[C@H](O)[C@@H]1O)c1nn[nH]n1` (stereo partly drawn) [Example 49, (1-(((2R,3S,4R,5R)-5-(6-chloro-4-(cyclopentylamino)-1H-pyrazolo[3,4-d]pyrimidin-1-yl)-3,4-dihydroxytetrahydrofuran-2-yl)methoxy)-2-hydroxy-1-(2H-tetrazol-5-yl)ethyl)phosphonic acid], the IC50 is 0.01 to 0.1 µM.

Take `CC(C)Nc1nc(Cl)nc2c1cnn2[C@@H]1O[C@H](CO[C@](CO)(Cc2nn[nH]n2)P(=O)(O)O)[C@@H](O)[C@H]1O` [Example 29, ((R)-2-(((2R,3S,4R,5R)-5-(6-chloro-4-(isopropylamino)-1H-pyrazolo[3,4-d]pyrimidin-1-yl)-3,4-dihydroxytetrahydrofuran-2-yl)methoxy)-1-hydroxy-3-(2H-tetrazol-5-yl)propan-2-yl)phosphonic acid]: the IC50 was at most 0.01 µM.

On to `COCC(OC[C@H]1O[C@@H](n2ncc3c(NC4CCCC4)nc(Cl)nc32)[C@H](O)[C@@H]1O)(C(=O)N(C)C)P(=O)(O)O` (stereo partly drawn) [Example 15, (2-(((2R,3S,4R,5R)-5-(6-chloro-4-(cyclopentylamino)-1H-pyrazolo[3,4-d]pyrimidin-1-yl)-3,4-dihydroxytetrahydrofuran-2-yl)methoxy)-1-(dimethylamino)-3-methoxy-1-oxopropan-2-yl)phosphonic acid], for which the IC50 lay in the range of 0.01 to 0.1 µM.

For the compound `COC[C@@](Cc1nn[nH]n1)(OC[C@H]1O[C@@H](n2ncc3c(NCC(C)C)nc(Cl)nc32)[C@H](O)[C@@H]1O)P(=O)(O)O` [Example 34, ((S)-2-(((2R,3S,4R,5R)-5-(6-chloro-4-(isobutylamino)-1H-pyrazolo[3,4-d]pyrimidin-1-yl)-3,4-dihydroxytetrahydrofuran-2-yl)methoxy)-1-methoxy-3-(2H-tetrazol-5-yl)propan-2-yl)phosphonic acid], the IC50 was in the range of 0.01 to 0.1 µM.

As to `COCC(CCC(=O)O)(OC[C@H]1O[C@@H](n2ncc3c(NC4CCCC4)nc(Cl)nc32)[C@H](O)[C@@H]1O)P(=O)(O)O` (stereo partly drawn) [Example 6, 4-(((2R,3S,4R,5R)-5-(6-chloro-4-(cyclopentylamino)-1H-pyrazolo[3,4-d]pyrimidin-1-yl)-3,4-dihydroxytetrahydrofuran-2-yl)methoxy)-5-methoxy-4-phosphonopentanoic acid], the IC50 is at most 0.01 µM.

As for `COC[C@](CC(=O)NO)(OC[C@H]1O[C@@H](n2ncc3c(NC4CCCC4)nc(Cl)nc32)[C@H](O)[C@@H]1O)P(=O)(O)O` [Example 8, ((R)-2-(((2R,3S,4R,5R)-5-(6-chloro-4-(cyclopentylamino)-1H-pyrazolo[3,4-d]pyrimidin-1-yl)-3,4-dihydroxytetrahydrofuran-2-yl)methoxy)-4-(hydroxyamino)-1-methoxy-4-oxobutan-2-yl)phosphonic acid], the IC50 is at most 0.01 µM.

In the case of `[2H]C([2H])([2H])OC[C@](COCc1nn[nH]n1)(OC[C@H]1O[C@@H](n2ncc3c(NC4CCCC4)nc(Cl)nc32)[C@H](O)[C@@H]1O)P(=O)(O)O` [Example 59, ((S)-1-((2H-tetrazol-5-yl)methoxy)-2-(((2R,3S,4R,5R)-5-(6-chloro-4-(cyclopentylamino)-1H-pyrazolo[3,4-d]pyrimidin-1-yl)-3,4-dihydroxytetrahydrofuran-2-yl)methoxy)-3-(methoxy-d3)propan-2-yl)phosphonic acid], the IC50 was at most 0.01 µM.

On to `COCC(Cc1nn[nH]n1)(OC[C@H]1O[C@@H](n2ncc3c(NC(C)C)nc(Cl)nc32)[C@H](O)[C@@H]1O)P(=O)(O)O` (stereo partly drawn) [Example 23, (2-(((2R,3S,4R,5R)-5-(6-chloro-4-(isopropylamino)-1H-pyrazolo[3,4-d]pyrimidin-1-yl)-3,4-dihydroxytetrahydrofuran-2-yl)methoxy)-1-methoxy-3-(2H-tetrazol-5-yl)propan-2-yl)phosphonic acid], for which the IC50 is at most 0.01 µM.

As for `COC[C@](Cc1nn[nH]n1)(OC[C@H]1O[C@@H](n2ncc3c(NC4CCC4)nc(CO)nc32)[C@H](O)[C@@H]1O)P(=O)(O)O` [Example 9, ((R)-2-(((2R,3S,4R,5R)-5-(4-(cyclobutylamino)-6-(hydroxymethyl)-1H-pyrazolo[3,4-d]pyrimidin-1-yl)-3,4-dihydroxytetrahydrofuran-2-yl)methoxy)-1-methoxy-3-(2H-tetrazol-5-yl)propan-2-yl)phosphonic acid], the IC50 was at most 0.01 µM.

As for `COC[C@](COCc1nn[nH]n1)(OC[C@H]1O[C@@H](n2ncc3c(NC4CCCC4)nc(Cl)nc32)[C@H](O)[C@@H]1O)P(=O)(O)O` [Example 38, ((S)-1-((2H-tetrazol-5-yl)methoxy)-2-(((2R,3S,4R,5R)-5-(6-chloro-4-(cyclopentamino)-1H-pyrazolo[3,4-d]pyrimidin-1-yl)-3,4-dihydroxytetrahydrofuran-2-yl)methoxy)-3-methoxypropan-2-yl)phosphonic acid], the IC50 was at most 0.01 µM.

Regarding `COCC(OC[C@H]1O[C@@H](n2ncc3c(NC4CCCC4)nc(Cl)nc32)[C@H](O)[C@@H]1O)(C(=O)O)P(=O)(O)O` (stereo partly drawn) [Example 46, 2-(((2R,3S,4R,5R)-5-(6-chloro-4-(cyclopentylamino)-1H-pyrazolo[3,4-d]pyrimidin-1-yl)-3,4-dihydroxytetrahydrofuran-2-yl)methoxy)-3-methoxy-2-phosphonopropanoic acid], the IC50 is at most 0.01 µM.

For the compound `COCC(CC(=O)NS(=O)(=O)N(C)C)(OC[C@H]1O[C@@H](n2ncc3c(NC4CCCC4)nc(Cl)nc32)[C@H](O)[C@@H]1O)P(=O)(O)O` (stereo partly drawn) [Example 22, (2-(((2R,3S,4R,5R)-5-(6-chloro-4-(cyclopentylamino)-1H-pyrazolo[3,4-d]pyrimidin-1-yl)-3,4-dihydroxytetrahydrofuran-2-yl)methoxy)-4-((N,N-dimethylsulfamoyl)amino)-1-methoxy-4-oxobutan-2-yl)phosphonic acid], the IC50 was at most 0.01 µM.

Regarding `COC[C@@](OC[C@H]1O[C@@H](n2ncc3c(NC4CCCC4)nc(Cl)nc32)[C@H](O)[C@@H]1O)(C(=O)NO)P(=O)(O)O` [Example 37, ((S)-2-(((2R,3S,4R,5R)-5-(6-chloro-4-(cyclopentylamino)-1H-pyrazolo[3,4-d]pyrimidin-1-yl)-3,4-dihydroxytetrahydrofuran-2-yl)methoxy)-1-(hydroxyamino)-3-methoxy-1-oxopropan-2-yl)phosphonic acid], the IC50 is at most 0.01 µM.

In the case of `CC(C)CNc1nc(Cl)nc2c1cnn2[C@@H]1O[C@H](CO[C@@](CO)(Cc2nn[nH]n2)P(=O)(O)O)[C@@H](O)[C@H]1O` [Example 32, ((S)-2-(((2R,3S,4R,5R)-5-(6-chloro-4-(isobutylamino)-1H-pyrazolo[3,4-d]pyrimidin-1-yl)-3,4-dihydroxytetrahydrofuran-2-yl)methoxy)-1-hydroxy-3-(2H-tetrazol-5-yl)propan-2-yl)phosphonic acid], the IC50 is 0.01 to 0.1 µM.
